Data on two molecules can be found in patent US20080261959A1, “Novel crystalline forms of (S)-N-(1-Carboxy-2-methyl-prop-1-y)-N-pentanoyl-N[2'-(1H-tetrazol-5-yl)bi-phenyl-4-ylmethyl]-amine” (priority 2005, published 2008).

The nature of the data set: Comparative bulk density determination. It is filed as physicochemical. The settings on record: for Bulk density: powder sample.

SMILES strings stand for the structures.

For the molecule `CCCCC(=O)N(Cc1ccc(-c2ccccc2-c2nnn[nH]2)cc1)[C@H](C(=O)O)C(C)C` [Amorphous valsartan, (S)-N-(1-Carboxy-2-methyl-prop-1-yl)-N-pentanoyl-N-[2′-(1H-tetrazol-5-yl)bi-phenyl-4-ylmethyl]-amine], the “Tapped density (1250 taps)” value worked out at 0.504 gm/ml and the Bulk density is on record as 0.37 gm/ml.
As to `CCCCC(=O)N(Cc1ccc(-c2ccccc2-c2nnn[nH]2)cc1)[C@H](C(=O)O)C(C)C` [Form D, (S)-N-(1-Carboxy-2-methyl-prop-1-yl)-N-pentanoyl-N-[2′-(1H-tetrazol-5-yl)bi-phenyl-4-ylmethyl]-amine], where the note is “listed as ‘Form D’ Vlasartan”, the “Tapped density (1250 taps)” value amounted to 0.6139 gm/ml and the Bulk density was 0.4561 gm/ml.
